Earlier results, collected in patent EP2545940A9, “Parenteral compositions” (hameln rds gmbh, priority 2011, dated 2013).
Like-named read-outs stand apart in the source and are kept apart here.

Details: 25°C

SMILES: C[C@H](/C=C/[C@H](C)C(C)(C)O)[C@H]1CC[C@H]2/C(=C/C=C3C[C@@H](O)C[C@H](O)C3)CCC[C@]12C [Paracalcin, (1 R, 3R, 7E, 17β) -17 - [(1 R, 2E, 4S)-5-Hydroxy-1 ,4,5-trimethylhex-2-en-1-yl] -9,10-secoestra-5,7-Dien-1 ,3-diol]
- Paracalcin (cosolvent: Ethanol 0.00, Propylene glycol 0.302, Water 0.698): 0.58 µg/mL
- Paracalcin (cosolvent: Ethanol 0.00, Propylene glycol 0.506, Water 0.494): 14.21 µg/mL
- Paracalcin (cosolvent: Ethanol 0.100, Propylene glycol 0.257, Water 0.643): 2.88 µg/mL
- Paracalcin (cosolvent: Ethanol 0.199, Propylene glycol 0.207, Water 0.594): 15.94 µg/mL
- Paracalcin (cosolvent: Ethanol 0.201, Propylene glycol 0.308, Water 0.491): 72.90 µg/mL
- Paracalcin (cosolvent: Ethanol 0.299, Propylene glycol 0.00, Water 0.701): 6.82 µg/mL
- Paracalcin (cosolvent: Ethanol 0.347, Propylene glycol 0.102, Water 0.551): 119.37 µg/mL
- Paracalcin (cosolvent: Ethanol 0.498, Propylene glycol 0.00, Water 0.502): 601.63 µg/mL
